# Laboratory results taken from patent US20250170090A1, “METHOD FOR PREVENTING OR TREATING DISEASE OR DISORDER ASSOCIATED WITH ANTINEOPLASTIC AGENT” (ONQUALITY PHARMACEUTICALS CHINA LTD., priority 2022, published 2025).
# Tests used:
# [1] = system: human immortalized keratinocytes (HaCaT); test: CCK-8 cell viability: alleviation of proliferative toxicity of anti-tumor agents on HaCaT (Table 8-1); type: cell-based; conditions: NO-NSAID 100 μM, percentage increase in viable cells vs anti-tumor agent alone
# Experimental: (§1) Experiments were conducted using various epithelial cells: Examples 47-51 used human immortalized keratinocytes (HaCaT) with corresponding results in Table 8-1; Examples 52-56 used human oral keratinocytes (HOK) with results in Table 8-2; Examples 57-61 used gastric epithelial cells (GES-1) with results in Table 8-3; Examples 62-66 used human intestinal epithelial cells (FHs 74 Int) with results in Table 8-4.
# (§2) The cultured cells were digested the suspended, counted, and seed into a 96-well plate with 5,000-10,000 cells per well. The wells are divided into the following groups: blank control group, anti-tumor agent group, anti-tumor agent+NO-NSAID group, anti-tumor agent solvent group, NO-NSAID solvent control group. Wherein each well of each group contained a basic medium, and the final liquid volume contained in each well was about 100 μL. The grouping situation was as follows: • 1) Blank control group: no solution was added except normally replacing the medium; • 2) Anti-tumor agent group: added the anti-tumor agent solution (the final concentration was shown in Table 8-1 to Table 8-4, the solvent of the anti-tumor agent solution was DMSO); • 3) Anti-tumor agent+NO-NSAID group: added the anti-tumor agent solution and the NO-NSAID solution (the final concentrations of anti-tumor agent and NO-NSAID were shown in Table 8-1 to Table 8-4, and according to the solubility of NO-NSAID, the solvent of NO-NSAID solution was selected as ethanol or sterile water, and minor volume differences in each group were adjusted by added the corresponding solvent); • 4) Anti-tumor agent solvent group: an equal volume of DMSO as contained in the corresponding anti-tumor agent solution in Group 2) was added; • 5) NO-NSAID control group: the same volume and type of solvent (for example, ethanol or sterile water) corresponding to the NO-NSAID contained in group 3) was added.
# (§3) The anti-tumor agent solvent group was not involved in data processing and was only used as a reference for evaluating experimental system error. The NO-NSAID solvent control group was used for data correction to eliminate the influence of the solvent on the results.
# (§4) After culturing for 24-48 hours, the Cell Counting Kit-8 (CCK-8) detection kit (C0037, Shanghai Beyotime Biotechnology Co., Ltd., Beyotime Biotechnology) was used to determine the cell viability. This allows for the calculation of the proliferative toxicity of anti-tumor agent on cell and the mitigating effect of NO-NSAID on proliferative toxicity. The results were statistically analyzed and plotted using GraphPad Prism 6.0 software and t test.
# [2] = system: hand-foot syndrome caused by anti-tumor agents; test: Treatment of established hand-foot syndrome caused by anti-tumor agents in rats (Table 4); type: in vivo
# Experimental: After the rats (about 200 g) were fed and adapted for one week, the rats were divided into groups of 10 rats for gavage administration experiment. The anti-tumor agent was dissolved in a mixed solution of Cremophor EL:ethanol=1:1, and diluted with PBS to the required concentration (diluted about 3 times with PBS solution) before gavage. […] Specific experimental procedures followed those outlined in the prevention experiment. […] Table 4 lists the animal experiments using various anti-tumor agents and NO-NSAID ointment, as well as the corresponding experimental results (where the value in the control rate column=the incidence rate of hand-foot syndrome in the blank group−the incidence rate of hand-foot syndrome in the treatment group).
# [3] = system: gastric epithelial cells (GES-1); test: CCK-8 cell viability: alleviation of proliferative toxicity of anti-tumor agents on GES-1 (Table 8-3); type: cell-based, human; conditions: NO-NSAID 100 μM
# Experimental: as §1, §2, §3, §4
# [4] = system: human oral keratinocytes (HOK); test: CCK-8 cell viability: alleviation of proliferative toxicity of anti-tumor agents on HOK (Table 8-2); type: cell-based; conditions: NO-NSAID 100 μM
# Experimental: as §1, §2, §3, §4
# [5] = system: human intestinal epithelial cells (FHs 74 Int); test: CCK-8 cell viability: alleviation of proliferative toxicity of anti-tumor agents on FHs 74 Int (Table 8-4); type: cell-based; conditions: NO-NSAID 100 μM
# Experimental: as §1, §2, §3, §4
# [6] = system: chemotherapy-induced hand-foot syndrome; test: Prevention of chemotherapy-induced hand-foot syndrome in rat models (Table 5); type: in vivo, SD rats
# Experimental: Rat animal model was constructed. After several days, the rats develop hand-foot syndrome in their paws. After one week of acclimatization (about 200 g), the SD rats are divided into groups of 10 rats each, followed by gavage administration experiment. The chemotherapy drugs were dissolved, and each rat was given a gavage dose of 1 mL/100 g. After gavage, the rats were fixed with a fixed cylinder. NO-NSAID ointment was applied to the paws of the rats in the medication group, and blank ointment was applied to the paws of the rats in the blank group (as blank control). […] Table 5 lists the animal experimental combinations of chemotherapy drugs and NO-NSAID ointment, as well as the corresponding experimental results (where the value in the control rate column=the incidence rate of hand-foot syndrome in the blank group−the incidence rate of hand-foot syndrome in the treatment group).
# [7] = Capecitabine 4000 mg/kg once a day, ointment 2% wt, Days 40
smiles,measurement,setting,value
CC(C(=O)OCCCO[N+](=O)[O-])c1ccc(-c2ccccc2)c(F)c1 (centres unmarked) [Compound A1],Response rate % (average),[1]; Afatinib (10 μM),38%
same,Response rate % (average),[1]; Cabozantinib (5 μM),36%
same,Response rate % (average),[1]; Dabrafenib (10 μM),2%
same,Response rate % (average),[1]; Everolimus (5 μM),−3%
same,Response rate % (average),[1]; Infigratinib (15 μM),−6%
same,Response rate % (average),[1]; Lapatinib (5 μM),33%
same,Response rate % (average),[1]; Lenvatinib (10 μM),24%
same,Response rate % (average),[1]; Olmutinib (10 μM),42%
same,Response rate % (average),[1]; Regorafenib (5 μM),41%
same,Response rate % (average),[1]; Selumetinib (5 μM),19%
same,Response rate % (average),[1]; Sorafenib (5 μM),25%
same,Response rate % (average),[1]; Sunitinib (5 μM),15%
same,Response rate,"[2]; Apatinib 105 mg/kg once every two days, ointment 2.50% wt, Days 7",28.57%
same,Response rate,"[2]; Cabozantinib 50 mg/kg once every two days, ointment 1% wt, Days 11",28.57%
same,Response rate,"[2]; Encorafenib 80 mg/kg once every two days, ointment 2.50% wt, Days 9",14.29%
same,Response rate,"[2]; Fruquintinib 40 mg/kg once every two days, ointment 2.50% wt, Days 8",42.86%
same,Response rate,"[2]; Lenvatinib 65 mg/kg once a day, ointment 2.50% wt, Days 9",40.00%
same,Response rate,"[2]; Olmutinib 100 mg/kg once every two days, ointment 2.50% wt, Days 12",42.86%
same,Response rate,"[2]; Regorafenib 90 mg/kg once every two days, ointment 0.50% wt, Days 8",14.29%
same,Response rate,"[2]; Sorafenib 80 mg/kg once every two days, ointment 2.50% wt, Days 5",28.57%
same,Response rate,"[2]; Sunitinib 120 mg/kg once every two days, ointment 2.50% wt, Days 9",28.57%
same,Response rate % (average),[3]; Afatinib (10 μM),24%
same,Response rate % (average),[3]; Cabozantinib (5 μM),28%
same,Response rate % (average),[3]; Dabrafenib (10 μM),6%
same,Response rate % (average),[3]; Everolimus (5 μM),24%
same,Response rate % (average),[3]; Infigratinib (15 μM),23%
same,Response rate % (average),[3]; Lapatinib (5 μM),31%
same,Response rate % (average),[3]; Lenvatinib (10 μM),41%
same,Response rate % (average),[3]; Olmutinib (10 μM),38%
same,Response rate % (average),[3]; Regorafenib (5 μM),34%
same,Response rate % (average),[3]; Selumetinib (5 μM),18%
same,Response rate % (average),[3]; Sorafenib (5 μM),15%
same,Response rate % (average),[3]; Sunitinib (5 μM),−2%
same,Response rate % (average),[4]; Afatinib (10 μM),41%
same,Response rate % (average),[4]; Cabozantinib (5 μM),23%
same,Response rate % (average),[4]; Dabrafenib (10 μM),2%
same,Response rate % (average),[4]; Everolimus (5 μM),−2%
same,Response rate % (average),[4]; Infigratinib (15 μM),1%
same,Response rate % (average),[4]; Lapatinib (5 μM),12%
same,Response rate % (average),[4]; Lenvatinib (10 μM),38%
same,Response rate % (average),[4]; Olmutinib (10 μM),40%
same,Response rate % (average),[4]; Regorafenib (5 μM),22%
same,Response rate % (average),[4]; Selumetinib (5 μM),15%
same,Response rate % (average),[4]; Sorafenib (5 μM),22%
same,Response rate % (average),[4]; Sunitinib (5 μM),9%
same,Response rate % (average),[5]; Afatinib (10 μM),39%
same,Response rate % (average),[5]; Cabozantinib (5 μM),27%
same,Response rate % (average),[5]; Dabrafenib (10 μM),−9%
same,Response rate % (average),[5]; Everolimus (5 μM),19%
same,Response rate % (average),[5]; Infigratinib (15 μM),0%
same,Response rate % (average),[5]; Lapatinib (5 μM),35%
same,Response rate % (average),[5]; Lenvatinib (10 μM),43%
same,Response rate % (average),[5]; Olmutinib (10 μM),34%
same,Response rate % (average),[5]; Regorafenib (5 μM),37%
same,Response rate % (average),[5]; Selumetinib (5 μM),29%
same,Response rate % (average),[5]; Sorafenib (5 μM),17%
same,Response rate % (average),[5]; Sunitinib (5 μM),21%
same,Control rate,"[6]; Capecitabine 4000 mg/kg once a day, ointment 1% wt, Days 40",37.50%
same,Control rate,"[6]; Capecitabine 4000 mg/kg once a day, ointment 3% wt, Days 40",44.44%
same,Control rate,"[6]; Doxorubicin 7 mg/kg once every three days, ointment 1% wt, Days 30",50.00%
CC(C)Cc1ccc(C(C)C(=O)OCO/N=[N+](\[O-])N(C)C)cc1 (centres unmarked) [Compound A4],Response rate % (average),[1]; Afatinib (10 μM),31%
same,Response rate % (average),[1]; Cabozantinib (5 μM),37%
same,Response rate % (average),[1]; Dabrafenib (10 μM),1%
same,Response rate % (average),[1]; Everolimus (5 μM),−4%
same,Response rate % (average),[1]; Infigratinib (15 μM),12%
same,Response rate % (average),[1]; Lapatinib (5 μM),25%
same,Response rate % (average),[1]; Lenvatinib (10 μM),17%
same,Response rate % (average),[1]; Olmutinib (10 μM),26%
same,Response rate % (average),[1]; Regorafenib (5 μM),36%
same,Response rate % (average),[1]; Selumetinib (5 μM),3%
same,Response rate % (average),[1]; Sorafenib (5 μM),32%
same,Response rate % (average),[1]; Sunitinib (5 μM),16%
same,Response rate % (average),[3]; Afatinib (10 μM),16%
same,Response rate % (average),[3]; Cabozantinib (5 μM),29%
same,Response rate % (average),[3]; Dabrafenib (10 μM),6%
same,Response rate % (average),[3]; Everolimus (5 μM),23%
same,Response rate % (average),[3]; Infigratinib (15 μM),36%
same,Response rate % (average),[3]; Lapatinib (5 μM),22%
same,Response rate % (average),[3]; Lenvatinib (10 μM),36%
same,Response rate % (average),[3]; Olmutinib (10 μM),21%
same,Response rate % (average),[3]; Regorafenib (5 μM),29%
same,Response rate % (average),[3]; Selumetinib (5 μM),2%
same,Response rate % (average),[3]; Sorafenib (5 μM),22%
same,Response rate % (average),[3]; Sunitinib (5 μM),0%
same,Response rate % (average),[4]; Afatinib (10 μM),34%
same,Response rate % (average),[4]; Cabozantinib (5 μM),24%
same,Response rate % (average),[4]; Dabrafenib (10 μM),2%
same,Response rate % (average),[4]; Everolimus (5 μM),−3%
same,Response rate % (average),[4]; Infigratinib (15 μM),18%
same,Response rate % (average),[4]; Lapatinib (5 μM),0%
same,Response rate % (average),[4]; Lenvatinib (10 μM),33%
same,Response rate % (average),[4]; Olmutinib (10 μM),24%
same,Response rate % (average),[4]; Regorafenib (5 μM),15%
same,Response rate % (average),[4]; Selumetinib (5 μM),−2%
same,Response rate % (average),[4]; Sorafenib (5 μM),29%
same,Response rate % (average),[4]; Sunitinib (5 μM),11%
same,Response rate % (average),[5]; Afatinib (10 μM),33%
same,Response rate % (average),[5]; Cabozantinib (5 μM),28%
same,Response rate % (average),[5]; Dabrafenib (10 μM),−9%
same,Response rate % (average),[5]; Everolimus (5 μM),18%
same,Response rate % (average),[5]; Infigratinib (15 μM),17%
same,Response rate % (average),[5]; Lapatinib (5 μM),26%
same,Response rate % (average),[5]; Lenvatinib (10 μM),38%
same,Response rate % (average),[5]; Olmutinib (10 μM),16%
same,Response rate % (average),[5]; Regorafenib (5 μM),31%
same,Response rate % (average),[5]; Selumetinib (5 μM),14%
same,Response rate % (average),[5]; Sorafenib (5 μM),24%
same,Response rate % (average),[5]; Sunitinib (5 μM),23%
same,Control rate,"[6]; Capecitabine 4000 mg/kg once a day, ointment 0.50% wt, Days 40",25.00%
same,Control rate,[6]; [7],57.14%
same,Control rate,"[6]; Cytarabine 120 mg/kg twice a day, ointment 0.50% wt, Days 30",28.57%
CC(=O)Oc1ccccc1C(=O)OCc1no[n+]([O-])c1C(N)=O [Compound A6],Response rate,"[2]; Encorafenib 80 mg/kg once every two days, ointment 1% wt, Days 7",16.67%
same,Control rate,[6]; [7],42.86%
